Reference: patent publication US7323480B2, “Substituted triazoles as modulators of PPAR and methods of their preparation” (Metabolex, Inc., priority 2004, dated 2008)
pEC50: −log10 of the molar value. Like-named read-outs stand apart in the source and are kept apart here.

Assays:
Assay type in all cases: cell-based
mouse PPARγ = molecular target: T1, mouse PPARγ (Mus musculus, UniProt P37238); test: PPARγ transactivation (GAL4 chimera luciferase gene activation) assay; conditions: GAL4 DNA binding domain-PPARγ ligand binding domain chimera, pFR-Luc reporter, HEK293T cells, 20 hours incubation
T1 construct: expressed in transfected cells; host or cells: HEK293T
T1 sequence (P37238 238-503 limits assumed): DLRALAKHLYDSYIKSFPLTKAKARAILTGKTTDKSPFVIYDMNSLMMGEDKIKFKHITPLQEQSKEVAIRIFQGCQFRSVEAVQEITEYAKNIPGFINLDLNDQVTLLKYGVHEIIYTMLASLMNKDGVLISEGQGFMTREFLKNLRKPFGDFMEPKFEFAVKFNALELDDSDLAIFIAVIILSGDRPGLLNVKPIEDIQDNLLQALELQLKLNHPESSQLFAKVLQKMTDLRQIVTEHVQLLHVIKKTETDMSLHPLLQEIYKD
From the text: (§1) Measurement of PPARγ, δ, and α Transactivation Activity
(§2) Chimeric receptors were constructed in which the yeast transcription factor GAL4 DNA binding domain was fused to the ligand binding domain of either mouse PPARγ, mouse PPAR δ or mouse PPAR α in order to assess the ability of the compounds of the present invention to activate gene expression in a PPAR-dependent manner. The chimeric receptor expression plasmids (GAL4-nPPARγ, GAL4-mPPAR δ and GAL4-PPAR α) and the reporter plasmid containing 5×GAL4 binding site (pFR-Luc, obtained from Stratagene) were transfected into HEK293T cells using the Lipofectamine 2000 reagent (Invitrogen), according to the manufacturers instructions. Six hours after transfection, the culture medium was renewed and the cells were incubated for 20 hours in presence of either 1) DMSO (vehicle), 2) a compound of the invention or 3) a reference compound for comparison. Rosiglitazone (obtained from WDF Pharma) was used as a reference compound for the PPARγ assay; GW501516 (prepared as described in Sznaidman et al. Bioorg. Med. Chem. Lett. (2003) 13:1517-1521) was used as a reference compound for the PPAR δ assay and GW7647 (obtained from Sigma) was used as a reference compound for the PPAR α assay. Luciferase activity was measured as a reporter of gene expression. Luciferase activity on the cell lysates using the Steady-Glo reagent was measured according to the manufacturers instructions.

mouse PPAR α = molecular target: T2, mouse PPAR α (Mus musculus, UniProt P23204); test: PPAR α transactivation (GAL4 chimera luciferase gene activation) assay; conditions: GAL4 DNA binding domain-PPAR α ligand binding domain chimera, pFR-Luc reporter, HEK293T cells, 20 hours incubation; read-out: Gene Activation Assay: EC50 PPAR alpha
T2 construct: expressed in transfected cells; host or cells: HEK293T
T2 sequence (P23204 239-466 limits assumed): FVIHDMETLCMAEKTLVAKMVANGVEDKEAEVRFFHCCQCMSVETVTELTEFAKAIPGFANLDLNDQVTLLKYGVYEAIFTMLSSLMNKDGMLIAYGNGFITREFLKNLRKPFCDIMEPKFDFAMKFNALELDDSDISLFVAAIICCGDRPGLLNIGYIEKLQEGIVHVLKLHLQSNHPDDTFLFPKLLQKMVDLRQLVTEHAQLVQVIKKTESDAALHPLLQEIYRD
From the text: as §1, §2

mouse PPAR δ = molecular target: T3, mouse PPAR δ (Mus musculus, UniProt P35396); test: PPAR δ transactivation (GAL4 chimera luciferase gene activation) assay; conditions: GAL4 DNA binding domain-PPAR δ ligand binding domain chimera, pFR-Luc reporter, HEK293T cells, 20 hours incubation; read-out: Gene Activation Assay: EC50 PPAR delta
T3 construct: expressed in transfected cells; host or cells: HEK293T
T3 sequence (P35396 210-438 limits assumed): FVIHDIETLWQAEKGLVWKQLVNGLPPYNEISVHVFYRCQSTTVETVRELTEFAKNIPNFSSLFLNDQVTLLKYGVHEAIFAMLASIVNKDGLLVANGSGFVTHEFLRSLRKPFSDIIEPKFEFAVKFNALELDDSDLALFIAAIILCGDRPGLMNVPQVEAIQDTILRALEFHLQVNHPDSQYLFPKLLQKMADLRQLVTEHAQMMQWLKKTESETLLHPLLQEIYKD
From the text: as §1, §2

[1] = read-out: Gene Activation Assay: EC50 PPAR gamma

Row | Compound | pEC50 (mouse PPARγ; [1]) | pEC50 (mouse PPAR α) | pEC50 (mouse PPAR δ) | pEC50 (mouse PPARγ; read-out: Gene Activation Assay: EC50 PPAR gamma (number printed instead of a symbol))
1 | Cc1cc(SCc2nn(-c3cccc(C(F)(F)F)c3)nc2C)ccc1OCC(=O)O [Compound 480, {2-Methyl-4-[5-methyl-2-(3-trifluoromethyl-phenyl)-2H-[1,2,3]triazol-4-ylmethylsulfanyl]-phenoxy}-acetic acid] | < 5.00 | ≥ 5.00 | ≥ 5.00 | 
2 | COc1ccc(-n2nc(C)c(CSc3ccc(OCC(=O)O)c(C)c3)n2)cc1 [Compound 440, {4-[2-(4-Methoxy-phenyl)-5-methyl-2H-[1,2,3]triazol-4-ylmethylsulfanyl]-2-methyl-phenoxy}-acetic acid] | < 5.00 | < 5.00 | ≥ 5.00 | 
3 | Cc1cc(SCc2nn(-c3ccc(C(F)(F)F)cc3)nc2C)ccc1OC(C)(C)C(=O)O [Compound 210, 2-Methyl-2-{2-methyl-4-[5-methyl-2-(4-trifluoromethyl-phenyl)-2H-[1,2,3]triazol-4-ylmethylsulfanyl]-phenoxy}-propionic acid] |  | ≥ 5.00 | ≥ 5.00 | 5.00
4 | Cc1cc(SCc2nn(-c3ccc(Cl)c(Cl)c3)nc2C)ccc1OCC(=O)O [Compound 640, {4-[2-(3,4-Dichloro-phenyl)-5-methyl-2H-[1,2,3]triazol-4-ylmethylsulfanyl]-2-methyl-phenoxy}-acetic acid] | < 4.52 | < 5.00 | ≥ 5.00 | 
5 | Cc1nn(-c2ccc(C(F)(F)F)cc2)nc1COc1ccc(CC(=O)O)cc1 [Compound 670] | < 4.52 | < 5.00 | ≥ 5.00 | 
6 | Cc1cc(SCc2nn(-c3ccc(C(F)(F)F)cc3)nc2-c2ccccc2)ccc1OCC(=O)O [Compound 340, {2-Methyl-4-[5-phenyl-2-(4-trifluoromethyl-phenyl)-2H-[1,2,3]triazol-4-ylmethylsulfanyl]-phenoxy}-acetic acid] | < 4.52 | ≥ 5.00 | ≥ 5.00 | 
7 | Cc1cc(SCc2nn(-c3ccc(C(F)(F)F)cc3)nc2C(F)(F)F)ccc1OCC(=O)O [Compound 360, {2-Methyl-4-[5-trifluoromethyl-2-(4-trifluoromethyl-phenyl)-2H-[1,2,3]triazol-4-ylmethylsulfanyl]-phenoxy}-acetic acid] | < 4.52 | < 5.00 | ≥ 5.00 | 
8 | Cc1cc(SCCc2nn(-c3ccc(C(F)(F)F)cc3)nc2C)ccc1OCC(=O)O [Compound 580, (2-Methyl-4-{2-[5-methyl-2-(4-trifluoromethyl-phenyl)-2H-[1,2,3]triazol-4-yl]-ethylsulfanyl}-phenoxy)-acetic acid] | < 4.52 | ≥ 5.00 | ≥ 5.00 | 
9 | Cc1cc(SCc2nn(-c3ccc(C(F)(F)F)cc3)nc2C(C)C)ccc1OCC(=O)O [Compound 320, {4-[5-Isopropyl-2-(4-trifluoromethyl-phenyl)-2H-[1,2,3]triazol-4-ylmethylsulfanyl]-2-methyl-phenoxy}-acetic acid] | < 4.52 | < 5.00 | ≥ 5.00 | 
10 | Cc1cc(SCc2nn(-c3ccc(C(F)(F)F)cc3)nc2C)ccc1OCC(=O)O [Compound 100, {2-Methyl-4-[5-methyl-2-(4-trifluoromethyl-phenyl)-2H-[1,2,3]triazol-4-ylmethylsulfanyl]-phenoxy}-acetic acid] | < 4.52 | < 5.00 | ≥ 5.00 | 
11 | Cc1cc(SCc2nn(-c3ccc(C(F)(F)F)cc3)nc2C)ccc1OC(C)C(=O)O (stereo not drawn) [Compound 110, 2-{2-Methyl-4-[5-methyl-2-(4-trifluoromethyl-phenyl)-2H-[1,2,3]triazol-4-ylmethylsulfanyl]-phenoxy}-propionic acid] | ≥ 5.00 | ≥ 5.00 | ≥ 5.00 | 
12 | CCCc1cc(CC(=O)O)ccc1OCc1nn(-c2ccc(C(F)(F)F)cc2)nc1C [Compound 660, {3-Propyl-4-[5-methyl-2-(4-trifluoromethyl-phenyl)-2H-[1,2,3]triazol-4-ylmethoxy]-phenyl}-acetic acid] | < 4.52 | < 4.52 | ≥ 5.00 | 
